US11904049B2, “Pharmaceutical formulation” (priority 2017, dated 2024)
Counter-ions that a name gives are not always drawn.

Key:
in vivo = settings: male, beagle, dog, plasma, intravenous, 0.143 mg/kg
Description: The three beagle dogs used in the experiment were male, non-naïve beagle dogs, weighing 12.7-13.9 kg, 37-39.5 months old, from CEDS (France) at the first session.
At each test session, serial blood samples were collected in all dogs at 12 time points: pre-dose, and then 0.083 (5 min), 0.167 (10 min), 0.33 (20 min), 0.5 (30 min), 1, 2, 3, 4, 5, 6 and 8 hours after the initial application, giving therefore a total of 180 blood samples. At each time-point, a blood sample of 2 mL was collected by puncture in a jugual vein in conscious animals using an identified vacuum tube containing K2-EDTA (Greiner Bio-One ref #454047) for plasma preparation. Immediately after collection, the blood sample was gently agitated and stored on ice until centrifugation (within 30 minutes of sampling). The blood samples were centrifuged at 4° C., at 1500 g, for 10 minutes. The entire resultant plasma was immediately transferred into an identified 1 mL polypropylene screw capped cryotube (1 aliquot of at least 800 μL of plasma) maintained on ice. The tubes were stored upright at approximately −20° C. until shipment to the test site, ABS Laboratories (BioPark, Broadwater Road, Welwyn Garden City, Herts AL7 3AX), for analysis by HPLC-MS (high performance liquid chromatography-mass spectrometry) using a standard separation protocol.
Individual concentration (C) versus time (T) curves were analysed for standard pharmacokinetic (PK) parameters using non-compartmental analysis using the SimBiology package of MatLab, Version 2015b.

[1] = cited from earlier work

C=CCN1CC[C@]23c4c5ccc(O)c4O[C@H]2C(=O)CC[C@@]3(O)[C@H]1C5 [Intravenous, Naloxone HCl]
AUC(0-t) (in vivo): 20.8 ng·h/mL
Cmax (in vivo): 29.4 ng/mL
Tmax (in vivo): 6.7 min
concentration at 5 min (in vivo): 28.2 ng/mL

C=CCN1CC[C@]23c4c5ccc(O)c4O[C@H]2C(=O)CC[C@@]3(O)[C@H]1C5 [naloxone]
strongest basic pKa [1]: 10.07
pKa ([1]; naloxone as a base): 7.84
